Test results as given in patent publication US20150064200A1, “METHODS AND COMPOSITIONS FOR 6-PHOSPHOGLUCONATE DEHYDROGENASE (6-PGD) AS A TARGET FOR LUNG CANCER THERAPY” (BETH ISRAEL DEACONESS MEDICAL CENTER, INC., priority 2012, published 2015).
“And” between values parts separate entries of the source, which are not always exact repeats. Equal values may be shown once.

Columns and labels:
6-PGD = assay: Western blot of 6-PGD expression after inducible shRNA knockdown; type: cell-based, human; conditions: H1975 cells
Description: (§1) To test the functional role of 6-PGD in human non small cell lung carcinoma (NSCLC), we used H1975 cells as our model system (FIG. 2A). These adenocarcinoma cells harbor two mutations in the EGFR (L858R/T790M) and are widely used to study the mechanism and treatment of gefitinib/erlotinib-resistant lung cancer cells. We chose to use an inducible shRNA system to knock down 6-PGD expression. Three nonoverlapping shRNAs were chosen in these experiments. […] Importantly, 6-PGD expression knockdown caused a substantial decrease in cell proliferation. To further corroborate the involvement of 6-PGD in NSCLC proliferation in vitro, we performed expression rescue experiments (FIG. 2B). H1975 cells expressing control shRNA or 6-PGD shRNA1 were transduced by either empty- or mouse-6PGD retrovirus. […] Overexpression of mouse 6-PGD alone enhanced H1975 cell growth. […] Our result confirmed that the growth inhibition was due to 6-PGD knockdown and not a non-specific artifact of the shRNA.

H1975 cells [1] = assay: Cell proliferation of H1975 cells upon knockdown; type: cell-based, human; conditions: 6-PGD knockdown
Description: as §1
The dramatic decrease in cell proliferation when 6-PGD was knocked down implies that the oxidative branch of the pentose phosphate pathway (PPP) could be indispensable for cell growth. […] To address this discrepancy, we next knocked down G6PD by transient siRNA transfection in H1975 cells. […] Therefore, the dramatic growth inhibition observed when 6-PGD was knocked down was not simply a result of PPP blockade. […]

[2] = system: senescence-associated beta galactosidase (SA-β-GAL) activity; assay: Senescence-associated beta galactosidase (SA-β-GAL) staining and chromogenic assay; type: cell-based, human; conditions: cells with 6-PGD knockdown
Description: We noticed that the cells with 6-PGD knocked down were enlarged and flattened-shapes characteristic of cells undergoing senescence. We therefore stained the cells for senescence-associated beta galactosidase (SA-β-GAL) activity. Because shRNA1 and shRNA2 had the most dramatic effects on 6-PGD expression and cell proliferation, we opted to test these two shRNAs in these experiments. […] Therefore, we concluded that suppression of 6-PGD induces cellular senescence in these cancer cells.
We tested whether the use of glucose or fructose in the medium might influence the phenotypic outcome of 6-PGD suppression. Fructose can be used to generate glycolytic metabolites via different pathways. For example, in the liver, fructose can be phosphorylated by fructokinase to yield fructose-1-phosphate and ultimately glyceraldehyde-3-phosphate to re-enter glycolysis. Fructose can also enter glycolysis when phosphorylated by hexokinase to become fructose-6-phosphate. We reasoned that if H1975 could metabolize fructose by these mechanisms, cells grown in fructose without glucose would likely be devoid of glucose-6-phosphate, bypassing the oxidative branch of the PPP. This scenario may be similar to the PPP shutdown by means of G6PD depletion. H1975 cells were treated with doxycycline to induce 6-PGD knockdown in 2 g/L fructose (no glucose). […]

p53 = assay: Western blot of p53 expression in cells with 6-PGD knockdown; type: cell-based, human; conditions: H1975 cells
Description: One of the main mechanisms for cellular senescence induction is the p53 pathway. Therefore we hypothesized that p53 expression might be increased in cells with 6-PGD knockdown.

H1975 cells [3] = assay: Oxygen consumption rate (OCR); type: cell-based, human
Description: We suspected that upon 6-PGD knockdown, these cells might have maintained NADPH level by enhanced glutaminolysis, another major mechanism for NADPH production. We therefore examined the rate of oxygen consumption of these cells, as NADPH production via glutaminolysis requires oxygen.

H1975 cells [4] = assay: Metabolite levels by mass spectrometry upon 6-PGD knockdown; type: cell-based, human; conditions: H1975, doxycycline three days, vs control shRNA
Protocol: Both control- and 6-PGD shRNA1-expressing H1975 cells were treated with doxycycline for three days. Metabolites were extracted for analysis by mass spectrometry. Results are grouped according to metabolic pathways (Table 5). […] Specifically, as might be expected, 6-phospho-D-gluconate and D-glucono-δ-lactone-6-phosphate levels were up by 11 and 7.9 fold, respectively. Direct determination of the effects in the non-oxidative branch was more difficult, as levels of some key intermediates such as xylulose-5-phosphate and D-sedo-heptulose-7-phosphate were not determined in our mass spectrometric analysis. However, there was no change in the level of total ribose phosphates, downstream products of the PPP. Importantly, levels of all the triphosphate nucleotides essential for DNA and RNA synthesis were essentially unchanged. […] Glycolysis also appeared to be affected by 6-PGD knockdown. Both glucose-6-phosphate and fructose-6-phosphate levels were increased, perhaps due to a backlog in the PPP. […] We believe that these intermediates were shunted to the non-oxidative PPP via the transketolase reactions using glyceraldehyde-3-phosphate as the entry point. These transketolase reactions would compensate for the blockade at 6-PGD and provide a carbon source for ribose phosphate production and maintenance of dNTP/NTP levels. […] In particular NADPH level was determined by this metabolomic analysis to be also unchanged by 6-PGD knockdown, consistent with result obtained by the colorimetric assay (FIG. 5A).

H1975 cells [5] = assay: H1975 xenograft tumor growth in nude mice; type: in vivo; conditions: H1975 cells induced with doxycycline, subcutaneous in nude mice, tumors weighed after 18 days
Description: We sought to test whether 6-PGD knockdown would inhibit tumor growth in a xenograft model. Control shRNA-, 6-PGD shRNA1, and 6-PGD shRNA2-H1975 cells were induced with doxycycline in vitro for three days prior to subcutaneous injection into nude mice. Mice were fed with doxycycline supplemented in drinking water. Tumors were excised after 18 days and weighed.

mouse 6-PGD = assay: Western blot of exogenous mouse 6-PGD expression in rescue experiment; type: cell-based; conditions: H1975 cells transduced with mouse-6PGD retrovirus, doxycycline induction
Description: as §1

shRNA1: 6-PGD specific shRNA from Open Biosystems, Oligo ID V3LHS_381993, mature sequence AGU UUG AUG GUG AUA AGA A (guide AGUUUGAUGGUGAUAAGAA; shRNA hairpin; mature sequence only)
expression of 6-PGD (6-PGD): most effective | cell proliferation (H1975 cells [1]): significantly blocked proliferation | number of cells positive for SA-β-GAL staining [2]: significantly increased | p53 expression (p53): significantly upregulated | oxygen consumption rate (OCR) (H1975 cells [3]): significant increase | Fold Change Glutamate (H1975 cells [4]; Glutamine/Glutamate): −1.1 fold | Fold Change Glutamine (H1975 cells [4]; Glutamine/Glutamate): −1.1 fold | Fold Change 1,3-Diphopshateglycerate (H1975 cells [4]; Glycolysis): 0.0 fold | Fold Change 3-Phosphoglycerate (H1975 cells [4]; Glycolysis): −2.1 fold | Fold Change D-Glyceraldehdye-3-phosphate (H1975 cells [4]; Glycolysis): −3.8 fold | Fold Change Dihyroxyacetone-phosphate (H1975 cells [4]; Glycolysis): −5.9 fold | Fold Change Fructose-1,6-bisphosphate (H1975 cells [4]; Glycolysis): −4.6 fold | Fold Change Fructose-6-phosphate (H1975 cells [4]; Glycolysis): 1.4 fold | Fold Change Glucose-6-phosphate (H1975 cells [4]; Glycolysis): 1.8 fold | Fold Change Lactate (H1975 cells [4]; Glycolysis): −1.2 fold | Fold Change Phosphoenolpyruvate (H1975 cells [4]; Glycolysis): −2.8 fold | Fold Change Pyruvate (H1975 cells [4]; Glycolysis): 1.3 fold | Fold Change ATP (H1975 cells [4]; NTPs/dNTPs): 1.2 fold | Fold Change CTP (H1975 cells [4]; NTPs/dNTPs): 1.0 fold | Fold Change GTP (H1975 cells [4]; NTPs/dNTPs): 1.5 fold | Fold Change UTP (H1975 cells [4]; NTPs/dNTPs): 1.2 fold | Fold Change dATP (H1975 cells [4]; NTPs/dNTPs): −1.1 fold | Fold Change dCTP (H1975 cells [4]; NTPs/dNTPs): 1.0 fold | Fold Change dGTP (H1975 cells [4]; NTPs/dNTPs): 1.2 fold | Fold Change dTTP (H1975 cells [4]; NTPs/dNTPs): −1.2 fold | Fold Change D-Glucono-δ-lactone-6-phosphate (H1975 cells [4]; PPP): 7.9 fold | Fold Change Ribose-phosphate (H1975 cells [4]; PPP): 1.2 fold | Fold Change 6-Phospho-D-gluconate (H1975 cells [4]; PPP, listed as 6-PGD shRNA1): 11 fold and 11.0 fold | Fold Change Glutathione (H1975 cells [4]; REDOX): −1.3 fold | Fold Change Glutathione disulfide (H1975 cells [4]; REDOX): 1.0 fold | Fold Change NAD+ (H1975 cells [4]; REDOX): 1.2 fold | Fold Change NADH (H1975 cells [4]; REDOX): −1.5 fold | Fold Change NADP+ (H1975 cells [4]; REDOX): 1.3 fold | Fold Change NADPH (H1975 cells [4]; REDOX): −1.1 fold | Fold Change Acetyl-CoA (H1975 cells [4]; TCA): 1.6 fold | Fold Change Citrate (H1975 cells [4]; TCA): 1.1 fold | Fold Change Fumarate (H1975 cells [4]; TCA): 1.0 fold | Fold Change Isocitrate (H1975 cells [4]; TCA): −1.1 fold | Fold Change Malate (H1975 cells [4]; TCA): −1.3 fold | Fold Change Oxaloacetate (H1975 cells [4]; TCA): −1.1 fold | Fold Change Succinate (H1975 cells [4]; TCA): −1.3 fold | Fold Change α-Ketoglutarate (H1975 cells [4]; TCA): −1.2 fold | tumor growth (H1975 cells [5]): significantly retarded tumor growth | expression of mouse 6-PGD (mouse 6-PGD): without affecting the expression of mouse 6-PGD

shRNA2: 6-PGD specific shRNA from Open Biosystems, Oligo ID V3LHS_381995, mature sequence AGG ACU GUC UCC AAA GUU G (guide AGGACUGUCUCCAAAGUUG; shRNA hairpin; mature sequence only)
expression of 6-PGD (6-PGD): most effective | number of cells positive for SA-β-GAL staining [2]: significantly increased | p53 expression (p53): significantly upregulated | oxygen consumption rate (OCR) (H1975 cells [3]): significant increase | tumor growth (H1975 cells [5]): significantly retarded tumor growth
